In the data set the test system is U937 cells. Nature of the data set: Delayed proliferation assay (MTT 48 hr after washing). To be noted: 70 hours. How it is done: Microcultures treated with an agent or agents for a defined period (exactly as in Example 8) were washed. Seventy-five percent of the well volume was removed without disturbing the sedimented cells, and medium was added to yield a ⅕ dilution. In three additional washes and cell sedimentations, 50% of the medium was replaced such that the original concentration of agents was reduced to <5%. The metabolic mass of cells surviving or proliferating at 48 hr after the washings, including the untreated control cells, was then assayed by the MTT method (total elapsed time of 70 hours).
As an adjunct to the delayed proliferative assay, we utilized an “immediate plate” to quantitate the cell mass at the beginning of the experiment (N0=original cell mass). It required no more than a single column of microwells filled with 50 μl of growth medium each, and aliquots of cells in 50 μl identical to those transferred to the usual “test plate”. The immediate plate was incubated at 37° C. to complete the MTT assay for the same time as used for the test plate (i.e. 3 hr).
Taking the mean final cell mass at 70 hours as N, each data point represents a ratio of the mean cell mass of dThd-treated cells as fraction of N/N0. A ratio of N/N0=1 indicates no change in original cell mass (i.e. no growth of the targeted population). A ratio of N/N0>1 indicates overall growth of the targeted population. A ratio of N/N0<1 indicates overall population loss (cell killing).
Taking the mean final cell mass at 70 hours as N, positive percentages represent the % effective cytotoxicity (EC%) expressed as 1−N/N0 and converted to a percentage, in relation to concentration. Thus, EC obtained only for ratios of N/N0<1 (i.e. positive percentages).

Molecules are shown by their SMILES.

For the compound `CN[C@@H]1C[C@H]2O[C@@](C)([C@@H]1OC)n1c3ccccc3c3c4c(c5c6ccccc6n2c5c31)C(=O)NC4` [STSP, staurosporine], the “Effective cytotoxicity (1-N/N0)” value is recorded as “about 85%” (13 nM STSP in the presence of 0.5 mM dThd) and “about 85%” (25 nM STSP in the presence of 0.1 mM dThd).
